# Data taken from patent publication US20260200849A1, “CATIONIC LIPIDS AND PREPARATION METHOD THEREOF” (RiboX Therapeutics HK Limited, priority 2024, published 2026).
# Where “and” joins values, the source holds several entries; their conditions need not be identical. Equal entries are not always repeated. Where two headings read alike, the source gives them in different places.
# Tests used:
# [1] = LNP size and polydispersity index (PDI) by dynamic light scattering (Zetasizer); format: physicochemical; conditions: for Size (nm): Formulation No. 001 (Ionizable lipid:DSPC:cholesterol:DMG-PEG2000 = 50:10:38.5:1.5, N/P 6), RNA No. 331
# Experimental: (§1) The LNP size and polydispersity index (PDI), determined by dynamic light scattering (DLS), and zeta potential were measured by a Zetasizer machine (Malvern). RNA concentration and encapsulation efficacy (EE %) were analyzed by the Quant-IT Ribogreen kit by calculating the percentage encapsulation at 100%—(RNA-LNPs/RNA-LNPs with Triton X-100).
# [2] = test system: C57BL/6J mice; test: In vivo expression by IV, 1.0 mg/kg luciferase RNA-LNPs, whole-body and organ IVIS luminescence; conditions: IV 1.0 mg/kg, 24 h post injection, male C57BL/6J mice N=3, Formulation 001, RNA 331
# Experimental: 6-8 week old, male C57BL/6J mice (N=3) were injected with 1.0 mg*kg−1 of RNA-LNPs encoding for firefly-luciferase by intravenous injection. At 24-hours post injection, animals were intraperitoneally injected with 15 mg/ml of Luciferin substrate and whole-body/liver/spleen/kidney/small intestine/large intestine luminescence were determined by a bioluminescent in vivo imaging system (IVIS).
# 6-8 week old, male C57BL/6J mice (N=3) were injected with 1.0 mg*kg−1 of RNA-LNPs encoding for firefly-luciferase by intravenous injection. At 24-hours post injection, animals were intraperitoneally injected with 15 mg/nil of Luciferin substrate and whole-body/liver/spleen/kidney/small intestine/large intestine luminescence were determined by a bioluminescent in vivo imaging system (IVIS).
# [3] = test system: IL-6; test: In vivo tolerability by IV: serum IL-6 by Luminex; parameters: species or system C57BL/6J mice; conditions: IV 1.0 mg/kg, male C57BL/6J mice N=3, Formulation 001, RNA 331
# Experimental: (§2) 6-8 week old, male C57BL/6J mice (N=3) were injected with 1.0 mg*kg/1 of RNA-LNPs encoding for firefly-luciferase by intravenous injection. At 2- and 24-hours post injection, about 40 μL blood was harvested and immediately added to the procoagulant containing tube. Stand for 30 min at room temperature and then centrifuged at 2500 g×10 min to obtain serum. About 15 μL serum samples were aliquoted for cytokine (MCP-1 and IL-6) detection by Luminex (ProcartaPlex Mouse 2-plex, Thermo). PBS group as negative control.
# (§3) 6-8 week old, male C57BL/6J mice (N=3) were injected with 1.0 mg*kg−1 of RNA-LNPs encoding for firefly-luciferase by intravenous injection. At 2- and 24-hours post injection, about 40 μL blood was harvested and immediately added to the procoagulant containing tube. Stand for 30 min at room temperature and then centrifuged at 2500 g×10 min to obtain serum. About 15 μL serum samples were aliquoted for cytokine (MCP-1 and IL-6) detection by Luminex (ProcartaPlex Mouse 2-plex, Thermo). PBS group as negative control.
# [4] = test system: MCP-1; test: In vivo tolerability by IV: serum MCP-1 by Luminex; parameters: species or system C57BL/6J mice; conditions: IV 1.0 mg/kg, male C57BL/6J mice N=3, Formulation 001, RNA 331
# Experimental: as §2, §3
# [5] = RNA encapsulation efficacy (EE %) by Quant-IT Ribogreen kit; format: physicochemical; conditions: LNP
# Experimental: as §1
# [6] = test system: Balb/c mice; test: In vivo expression by IV, 0.05 mg/kg luciferase RNA-LNPs, IVIS luminescence; conditions: IV 0.05 mg/kg, 24 h post injection, female Balb/c mice N=3, Formulation 001, RNA 331
# Experimental: 7-8 week old, female Balb/c mice (N=3) were injected with 0.05 mg*kg−1 of RNA-LNPs encoding for firefly-luciferase by intravenous injection. At 24- and 72-hours post injection, animals were intraperitoneally injected with 15 mg/mi of Luciferin substrate and whole-body luminescence was determined by a bioluminescent in vivo imaging system (IVIS).
# 7-8 week old, female Balb/c mice (N=3) were injected with 0.05 mg*kg−1 of RNA-LNPs encoding for firefly-luciferase by intravenous injection. At 24-hours post injection, animals were intraperitoneally injected with 15 mg/ml of Luciferin substrate and whole-body/liver/spleen luminescence was determined by a bioluminescent in vivo imaging system (IVIS).
# [7] = In vivo lipid metabolism by IV: ionizable lipid concentration in plasma and liver by LC-MS/MS; parameters: species or system Sprague-Dawley (SD) rats; conditions: IV 0.15 mg/kg RNA-LNPs (hEPO), male SD rats, individual animals N=3
# Experimental: In Vivo Lipid Metabolism by IV 7-8 week old, male Sprague-Dawley (SD) rats (N=3) were injected with 0.15 mg*kg−1 of RNA-LNPs encoding for hEPO by intravenous injection. At 1-/6-/96-/168-hours post injection, about 100 μL blood will be harvested and immediately added to the EDTAK2 containing tube. Place on wet ice and then centrifuged at 3000 g×5 min to obtain plasma. 30 μL plasma will be aliquoted to the 1.5 mL tubes. At terminal 6-/168-hours post injection, the rats will be euthanized with CO2, hemorrhaged immediately with cardiac puncture, respectively. The livers were harvested, weighed and washed with saline, then put into 50 ml centrifuge tube placed in liquid nitrogen, then transferred into wet ice, and finally stored at −80° C. immediately. Both plasma and liver samples were used for ionizable lipid concentration quantification by LC-MS/MS. The lower limit of quantitation (LLOQ) is 1 ng/mL in plasma or 11 ng/g in liver. BQL—Below the lower limit of quantitation (LLOQ).
# [8] = Formulation No. 001, RNA No. 331
# [9] = Formulation No. 001, RNA No. 019 (hEPO)
Compound,"PDI [1, 8]","Size [1, 8]",Kidney (p/s) [2],Large intestine (p/s) [2],Liver (p/s) [2],Small intestine (p/s) [2],Spleen (p/s) [2],Whole body (p/s) [2],IL-6 at 2 h [3],IL-6 at 24 h [3],MCP-1 at 2 h [4],MCP-1 at 24 h [4],"EE (%) [5, 8]",Liver (p/s) (Mean) [6],Spleen (p/s) (Mean) [6],Whole body (p/s) (Mean) [6],Size (nm) [1],other results
CCCCCCCCCCC(CCCCCCCC)COC(=O)CCCCCOC(=O)NC(COC(=O)NCCN(C)C)C(=O)OCCCCCC(=O)OCC(CCCCCCCC)CCCCCCCCCC (stereo not shown) [Lipid 1017],0.07,69.70 nm,9.00E+06 p/s,2.09E+07 p/s,9.32E+08 p/s,1.93E+08 p/s,4.32E+08 p/s,1.13E+09 p/s,12.8 pg/mL,0.792 pg/mL,2430 pg/mL,94.6 pg/mL,97.70%,3.91E+07 p/s,1.30E+07 p/s,2.45E+08 p/s,,
CCCCCCCCCCC(CCCCCCCC)COC(=O)CCCCCOC(=O)NC(COC(=O)NCCN1CCCC1)C(=O)OCCCCCC(=O)OCC(CCCCCCCC)CCCCCCCCCC (stereo not shown) [Lipid 1019],0.10,68.78 nm,1.46E+07 p/s,2.12E+08 p/s,1.20E+09 p/s,5.41E+08 p/s,4.98E+08 p/s,2.49E+09 p/s,404 pg/mL,2.02 pg/mL,3720 pg/mL,401 pg/mL,97.11%,3.60E+07 p/s,2.21E+07 p/s,2.46E+08 p/s,,
CCCCCCCCCCC(CCCCCCCC)COC(=O)CCCCCOC(=O)NC(COC(=O)NCCN1CCCCC1)C(=O)OCCCCCC(=O)OCC(CCCCCCCC)CCCCCCCCCC (stereo not shown) [Lipid 1020],0.01,57.55 nm,5.29E+07 p/s,2.16E+08 p/s,1.90E+10 p/s,1.62E+09 p/s,1.14E+09 p/s,9.25E+09 p/s,90.5 pg/mL,1.07 pg/mL,1930 pg/mL,180 pg/mL,94.34%,1.38E+08 p/s,2.67E+07 p/s,4.91E+08 p/s,,"Plasma (ng/mL), ionizable lipid concentration ([7]; 1 h post injection): 2412 ng/mL and 2622 ng/mL; Liver (ng/g), ionizable lipid concentration ([7]; 6 h post injection): 38824 ng/g and 43259 ng/g; Plasma (ng/mL), ionizable lipid concentration ([7]; 6 h post injection): 1241 ng/mL and 1471 ng/mL; Plasma (ng/mL), ionizable lipid concentration ([7]; 96 h post injection): 31.2 ng/mL and 26.1 ng/mL; Liver (ng/g), ionizable lipid concentration ([7]; 168 h post injection): 2432 ng/g and 1960 ng/g; Plasma (ng/mL), ionizable lipid concentration ([7]; 168 h post injection): 7.35 ng/mL and 11.3 ng/mL and 4.48 ng/mL; concentration at 6 h ([7]; male, Sprague-Dawley, rat, liver, iv, 0.15 mg/kg, 6 h post injection, read-out: Liver (ng/g), ionizable lipid concentration): 36500 ng/g; concentration at 168 h ([7]; male, Sprague-Dawley, rat, liver, iv, 0.15 mg/kg, 168 h post injection, read-out: Liver (ng/g), ionizable lipid concentration): 2890 ng/g; concentration at 1 h ([7]; male, Sprague-Dawley, rat, plasma, iv, 0.15 mg/kg, 1 h post injection): 2420 ng/mL; concentration at 6 h ([7]; male, Sprague-Dawley, rat, plasma, iv, 0.15 mg/kg, 6 h post injection, read-out: Plasma (ng/mL), ionizable lipid concentration): 1210 ng/mL; concentration at 96 h ([7]; male, Sprague-Dawley, rat, plasma, iv, 0.15 mg/kg, 96 h post injection): 33.6 ng/mL; PDI [1, 9]: 0.06; Size [1, 9]: 55.95 nm; EE (%) [5, 9]: 97.29%"
CCCCCCCC/C=C\CCCCCCCCOC(=O)NC(COC(=O)NCCN1CCCCCC1)C(=O)OCCCCCC(=O)OCC(CCCCCCCC)CCCCCCCCCC (stereo not shown) [Lipid 1041],0.08,,6.14E+06 p/s,1.74E+07 p/s,1.08E+09 p/s,1.96E+08 p/s,1.93E+08 p/s,8.03E+08 p/s,51.2 pg/mL,4.53 pg/mL,1180 pg/mL,68.1 pg/mL,90.29%,,,,59.33 nm,
CCCCCCCCCCC(CCCCCCCC)COC(=O)CCCCCOC(=O)NC(COC(=O)NCCN1CCCCCC1)C(=O)OCCCCCCCC(=O)OC(CCCCCCCC)CCCCCCCC (stereo not shown) [Lipid 1072],0.04,,8.41E+06 p/s,1.22E+07 p/s,1.40E+10 p/s,2.07E+08 p/s,1.95E+08 p/s,6.81E+09 p/s,2.07 pg/mL,0.947 pg/mL,554 pg/mL,35.1 pg/mL,96.51%,,,,52.67 nm,
